Source: patent publication US20230339970A1, “CASEIN KINASE 1 DELTA MODULATORS” (priority 2020, published 2023)
pIC50: −log10 of the molar value. Where two headings read alike, the source gives them in different places.

Tests used:
circadian rhythms [1] = details: cellular reporter assays; cited from earlier work
[2] = including conditioned place preference with cocaine and alcohol reinstatement; cited from earlier work
circadian rhythms [3] = details: in vivo locomotor activity of a variety of species; cited from earlier work
[4] = ob/ob and diet-induced obese mouse, daily administration; cited from earlier work
[5] = target: T1, human recombinant GST cleaved CSNK1D (Homo sapiens, UniProt P48730); assay: Purified Enzyme Assay (ADP-Glo CSNK1D Kinase Assay); format: biochemical; details: 2 nM CSNK1D; peptide substrate 150 μM; ATP 20 μM; 45 minutes at room temperature
T1 construct: GST (cleaved yes); purchased University of Dundee clone DU 19064
Procedure, shortened: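 GST-cleaved human recombinant CSNK1D phosphorylates peptide PLSRTL-pS-VASLPGL with ATP; compounds added in dose-response, 45 min at room temperature. ADP formed measured by ADP-Glo luminescence and converted to percent activity.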

human CSNK1D = target: T2, human CSNK1D (Homo sapiens, UniProt P48730); assay: Whole Cell nBRET CSNK1D Binding Assay; details: living CHO cells stably expressing human CSNK1D tagged with nanoluciferase; NanoBret tracer 130 nM; 2 hours at 37 C
T2 construct: expressed in transfected cells
T2 sequence (P48730 whole entry): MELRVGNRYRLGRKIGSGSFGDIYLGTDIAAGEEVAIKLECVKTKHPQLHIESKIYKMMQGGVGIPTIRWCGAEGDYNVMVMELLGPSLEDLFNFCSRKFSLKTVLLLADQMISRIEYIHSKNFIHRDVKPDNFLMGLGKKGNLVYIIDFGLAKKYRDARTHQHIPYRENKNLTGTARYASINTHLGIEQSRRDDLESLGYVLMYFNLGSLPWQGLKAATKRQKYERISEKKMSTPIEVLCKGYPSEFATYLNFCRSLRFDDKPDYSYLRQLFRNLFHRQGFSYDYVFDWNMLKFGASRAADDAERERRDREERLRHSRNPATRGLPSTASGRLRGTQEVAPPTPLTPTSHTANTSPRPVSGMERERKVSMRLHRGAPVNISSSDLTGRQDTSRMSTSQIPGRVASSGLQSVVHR

T1 sequence (P48730 whole entry): as above

SMILES	pIC50 [5]	pIC50 (human CSNK1D)	effect on circadian rhythms (circadian rhythms [1])	efficacy in addiction/substance abuse models [2]	effect on circadian rhythms (circadian rhythms [3])	glucose tolerance [4]
Nc1nccc(-c2c(-c3ccc(F)cc3)ncn2C2CCCCC2)n1 [PF-670462]	–	–	significantly lengthened circadian rhythms	shown efficacy	significantly lengthened circadian rhythms	–
Nc1nccc(-c2c(-c3ccc(F)cc3)ncn2C2CCN(Cc3ccon3)CC2)n1 [PF-5006739]	–	–	significantly lengthened circadian rhythms	–	significantly lengthened circadian rhythms	improve glucose tolerance
Cc1cc(-c2c(-c3ccc(F)cc3)nn3c2CO[C@H](C)C3)c2cn[nH]c2n1 (single isomer, unassigned) [Example 84, (*R)-2-(4-Fluorophenyl)-6-methyl-3-(6-methyl-1H-pyrazolo[3,4-b]pyridin-4-yl)-6,7-dihydro-4H-pyrazolo[5,1-c][1,4]oxazine]	9.00	7.60	–	–	–	–
CC1(CF)CCc2c(-c3ccnc(N)c3)c(-c3ccc(F)cn3)nn2C1 (single isomer, unassigned) [Example 286, (*S)-4-[6-(Fluoromethyl)-2-(5-fluoro-2-pyridyl)-6-methyl-5,7-dihydro-4H-pyrazolo[1,5-a]pyridin-3-yl]pyridin-2-amine]	8.40	7.09	–	–	–	–

Continued, in another order:

pIC50 [5]	pIC50 (human CSNK1D)	SMILES	effect on circadian rhythms (circadian rhythms [1])	efficacy in addiction/substance abuse models [2]	effect on circadian rhythms (circadian rhythms [3])	glucose tolerance [4]
8.52	7.20	COCC1(C)CCc2c(-c3cc(C)nc4[nH]ncc34)c(-c3ccc(F)cn3)nn2C1 (single isomer, unassigned) [Example 56, (*R)-4-(2-(S-Fluoropyridin-2-yl)-6-(methoxymethyl)-6-methyl-4,5,6,7-tetrahydropyrazolo[1,5-a]pyridin-3-yl)-6-methyl-1H-pyrazolo[3,4-b]pyridine]	–	–	–	–
8.70	7.40	CC1COc2c(-c3ccnc4[nH]ncc34)c(-c3ccc(F)cn3)nn2C1 (stereo not drawn) [Example 196, 2-(5-Fluoropyridin-2-yl)-6-methyl-3-(1H-pyrazolo[3,4-b]pyridin-4-yl)-6,7-dihydro-5H-pyrazolo[5,1-b][1,3]oxazine]	–	–	–	–
9.00	8.15	O=C(Nc1cc(-c2c(-c3ccc(F)cn3)nn3c2OCC2(CC2)C3)ccn1)C1CC1 [Example 456, N-(4-(2′-(5-Fluoropyridin-2-yl)-5′H,7′H-spiro[cyclopropane-1,6′-pyrazolo[5,1-b][1,3]oxazin]-3′-yl)pyridin-2-yl)cyclopropanecarboxamide]	–	–	–	–
8.22	7.13	C[C@@H]1OCc2c(-c3ccnc4[nH]ncc34)c(-c3ccc(F)cc3)nn2[C@H]1C (single isomer, unassigned) [Example 115, (6*S,7*S)-2-(4-Fluorophenyl)-6,7-dimethyl-3-(1H-pyrazolo[3,4-b]pyridin-4-yl)-6,7-dihydro-4H-pyrazolo[5,1-c][1,4]oxazine]	–	–	–	–
